The record followed here is US20040142920A1, “Bipiperidinyl-derivatives and their use as chemokine receptors inhibitors” (priority 2001, published 2004).

In test [1] the target is T1, Human CCR5 (Homo sapiens, UniProt P51681). The test can be described thus: CCR5 functional assay - Ca2+ mobilization in CHO K1 transfectants. Format: cell-based. Set-up: expressed in transfected cells. The method, then: b) CCR5 Functional Assay—Ca^2+ Mobilization
These CCR5 transfectants are used for assessing Ca^2+ mobilization in response to stimulation by the CCR5 ligands MIP-1α, MIP-1β, HCC-1(9-74) or RANTES. For the assay the cells are loaded with a Ca^2+-sensitive fluorochrome (Fluo3 or Fluo4). Ligand concentrations between 0.01-100 nM are used to induce Ca^2+ mobilization which is monitored in a fluorometer with appropriate settings.
To assess the activity of the compounds to be tested, a baseline fluorescence reading is taken after which the compounds at the desired concentration are added to the cells and fluorescence is further recorded for a certain time to assess whether compounds show agonistic effects. Next the agonist is added to the mixture and fluorescence monitored. The inhibition of Ca^2+ flux in the presence of the compounds to be tested is calculated from the inhibition of maximal fluorescence induced by the agonist. IC50 values are calculated from dose-response curves obtained with the compounds. […] For example, compounds of Example 1, 18 and 52 have an IC50 of 10, 9 and 4, respectively.
(Calcium flux is commonly read through the fluorescence of an indicator in the cells.)

Test [2] concerns the target T1, Human CCR5. The experiment in a line: CCR5 membrane binding assay (125-I MIP-1α radioligand).
Description: a) CCR5 Membrane Binding Assay
Human CCR5 is used to generate stable transfectants in CHO K1 cells. Membranes prepared from these CCR5 transfectants are used In a radioligand binding assay using 125-I MIP-1α as a ligand and the compounds of formula I are tested for inhibitory activity. The data are reported as IC50, i.e. the concentration of compound required to achieve 50% inhibition of [I-125]MIP-1α binding.

T1 sequence (P51681 whole entry): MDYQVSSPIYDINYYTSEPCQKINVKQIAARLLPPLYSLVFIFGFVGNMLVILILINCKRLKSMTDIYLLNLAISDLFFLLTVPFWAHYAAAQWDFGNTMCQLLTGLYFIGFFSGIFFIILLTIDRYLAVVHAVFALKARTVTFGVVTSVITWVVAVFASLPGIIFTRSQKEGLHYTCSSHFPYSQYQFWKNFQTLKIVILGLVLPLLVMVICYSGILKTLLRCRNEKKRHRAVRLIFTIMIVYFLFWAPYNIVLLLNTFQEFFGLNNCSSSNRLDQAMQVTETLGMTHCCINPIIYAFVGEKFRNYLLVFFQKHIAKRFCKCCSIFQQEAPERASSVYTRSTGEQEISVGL

`CC1(N2CCC(N(c3ccccc3)c3ccccc3)CC2)CCN(C(=O)c2c(Cl)c[n+]([O-])cc2Cl)CC1` [Example 18]: the IC50 on Human CCR5 [1] (CCR5-transfected CHO K1 cells, agonist MIP-1α, MIP-1β, HCC-1(9-74) or RANTES, Fluo3 or Fluo4, read-out: IC50, inhibition of Ca2+ flux) was determined as 9 nM.

In turn, `Cc1cccc(C)c1C(=O)N1CCC(C)(N2CCC(N(Cc3ccccc3)c3ccc(Br)cc3)CC2)CC1` [Example 52, {4-[Benzyl-(4-bromo-phenyl)amino]-4′-methyl-[1,4′]bipiperidinyl-1′-yl}-(2,6-dimethyl-phenyl)-methanone] returned a 50% inhibitory concentration (IC50) against Human CCR5 [1] of 4 nM.

For the molecule `Cc1nc(CN(c2ccccc2)C2CCN(C3(C)CCN(C(=O)c4c(C)cc[n+]([O-])c4C)CC3)CC2)cs1` [Example 83, (2,4-Dimethyl-1-oxy-pyridin-3-yl)-{4′-methyl-4-[(2-methyl-thiazol-4-ylmethyl)-phenyl-amino]-[1,4′]bipiperidinyl-1′-yl}-methanone], at Human CCR5 [2], the IC50 was in the range of 2 to 3 nM.

Broadly, the IC50 is the point on the concentration scale where inhibition reaches its midpoint.
